Source: patent publication US8420626B2, “Arene connected polyamine macrocyclic derivatives, preparation methods and pharmaceutical uses thereof” (Beijing Molecule Science and Technology Co., Ltd., priority 2007, dated 2013)
Where a name gives a salt, the structure may show the parent alone. Read-outs that look alike come from different tables or passages of the source.

Experiments:
Type in all cases: cell-based
Cytotoxicity (XTT assay) = settings: half toxic concentration, incubation 4 days at 37° C.
Experimental: To 100 μl solution per compound on 96 wells cultivation plate at a certain concentration was added the same volume of cells (5×10^5/ml). Incubation was performed at 37° C. for 4 days. To the resultant were added 50 μl XTT solution (1 mg/ml) and 0.02 nM PMS. After the incubation was performed for 4 hours, the absorption was detected at 450 nm by means of ELISA detector. The CC50 (half toxic concentration) value was calculated by Calcusyn software provided by Sloan-Kettering Cancer Center (New York).
(§1) The inhibition activity (IC50) of pathological effect (CPE) and cytotoxicity (CC50) of p24 antigens and cells of HIV-1 of the compounds of part of examples were shown as follows: […]

HIV-1 = assay: Anti-HIV activity: inhibition of cell pathological effect (CPE); settings: Human immunodeficiency virus 1; inhibition of cell pathological effect of HIV-1
Experimental: (§2) Per well of polystyrene plate (Immulon IB, Dynex Technology, Chantilly, Va.) was applied with HIV IG (a buffer of 0.085 M sodium carbonate and sodium bicarbonate, pH=9.6), stood at 4° C. over night, washed with PBS-T buffer (0.01 M PBS contains 0.05% Tween-20). The reaction was […] with PBS containing 1% skimmed milk (Bio-Rad Inc., Hercules, Calif.). A virus dissolved product was added to the wells, incubated at 37° C. for 1 hour, and washed. To the washed wells were added anti-P24 mAb (183-12H-5C), biotin labeled antimouse IgG1 (Santa Cruz Biotech., Santa Cruz, Calif.), SA-HRP and TMB successively. The reaction was terminated with 1N H2SO4. The absorption was detected at 450 nm by means of ELISA detector (Ultra 384, Tecan). Recombination protein p24 (US Biological, Swampscott, Mass.) was considered when the response curve of standard dosage was established. The inhibition activity IC50 (half inhibition concentration) values of p24 protein and (cell pathological effect) CPE were calculated by Calcusyn software provided by Sloan-Kettering Cancer Center (New York).
as §1

p24 antigens of HIV-1 = assay: Anti-HIV activity: inhibition of p24 antigen (ELISA)
Experimental: as §2, §1

[1] = Human immunodeficiency virus 1, inhibition of HIV-1 p24 antigen, ELISA at 450 nm, read-out: IC50 (μM) p24

| Structure (SMILES) | CC50 at 4 days (Cytotoxicity (XTT assay)) | IC50 (HIV-1) | IC50 (p24 antigens of HIV-1; [1]) | IC50 (p24 antigens of HIV-1; Human immunodeficiency virus 1, read-out: IC50 (μM) p24) |
| --- | --- | --- | --- | --- |
| c1ccc(C(c2cccc(CN3CCCNCCNCCCNCC3)c2)c2cccc(CN3CCCNCCNCCCNCC3)c2)cc1 [Example 1, 3,3′-bis[(1,4,8,11-tetraazacyclotetradecan-1-yl)-methyl]-1,1′,1″-triphenylmethane octahydrobromide dihydrate] | 322000 ± 7130 nM | 0.41 ± 0.11 µM | 0.13 ± 0.02 µM |  |
| Cc1ccc(C(c2cccc(CN3CCCNCCNCCCNCC3)c2)c2cccc(CN3CCCNCCNCCCNCC3)c2)cc1 [Example 2, 3,3′-bis[(1,4,8,11-tetraazacyclotetradecan-1-yl)-methyl]-4″-methyl-1,1′,1″-triphenylmethane octahydrobromide dihydrate] | 285000 ± 18800 nM | 0.48 ± 0.31 µM | 0.17 ± 0.08 µM |  |
| Brc1ccc(C(c2cccc(CN3CCCNCCNCCCNCC3)c2)c2cccc(CN3CCCNCCNCCCNCC3)c2)cc1 [Example 3, 3,3′-bis[(1,4,8,11-tetraazacyclotetradecan-1-yl)-methyl]-4″-bromo-1,1′,1″-triphenylmethane octahydrobromide dihydrate] | 161000 ± 4230 nM | 0.08 ± 0.04 µM | 0.13 ± 0.01 µM |  |
| Fc1ccc(C(c2cccc(CN3CCCNCCNCCCNCC3)c2)c2cccc(CN3CCCNCCNCCCNCC3)c2)cc1 [Example 4, 3,3′-bis[(1,4,8,11-tetraazacyclotetradecan-1-yl)-methyl]-4″-fluoro-1,1′,1″-triphenylmethane octahydrobromide dihydrate] | 367000 ± 54000 nM | 0.42 ± 0.06 µM | 0.32 ± 0.02 µM |  |
| Clc1cccc(C(c2cccc(CN3CCCNCCNCCCNCC3)c2)c2cccc(CN3CCCNCCNCCCNCC3)c2)c1 [Example 5, 3,3′-bis[(1,4,8,11-tetraazacyclotetradecan-1-yl)-methyl]-3″-chloro-1,1′,1″-triphenylmethane octahydrobromide dihydrate] | 162000 ± 2690 nM | 0.23 ± 0.01 µM | 0.35 ± 0.04 µM |  |
| c1ccc(C(c2cccc(CN3CCCNCCNCCCNCC3)c2)c2cccc(CN3CCCNCCNCCCNCC3)c2)nc1 [Example 6, 2-{[3,3′-bis[(1,4,8,11-tetraazacyclotetradecan-1-yl)-methyl]-1,1′yl]-diphenyl}methylenepyridyl octahydrobromide dihydrate] | 377000 ± 34400 nM | 0.55 ± 0.16 µM | 0.16 ± 0.04 µM |  |
| c1ccc(C(c2ccc(CN3CCCNCCNCCCNCC3)cc2)c2ccc(CN3CCCNCCNCCCNCC3)cc2)cc1 [Example 7, 4,4′-bis[(1,4,8,11-tetraazacyclotetradecan-1-yl)-methyl]-1,1′,1″-triphenylmethane octahydrobromide dihydrate] | 101000 ± 1050 nM | 2.42 ± 0.4 µM | 0.98 ± 0.12 µM |  |
| Cc1ccc(C(c2ccc(CN3CCCNCCNCCCNCC3)cc2)c2ccc(CN3CCCNCCNCCCNCC3)cc2)cc1 [Example 8, 4,4′-bis[(1,4,8,11-tetraazacyclotetradecan-1-yl)-methyl]-4″-methyl-1,1′,1″-triphenylmethane octahydrobromide dihydrate] | 130000 ± 12400 nM | 2.05 ± 0.58 µM | 0.97 ± 0.14 µM |  |
| Brc1ccc(C(c2ccc(CN3CCCNCCNCCCNCC3)cc2)c2ccc(CN3CCCNCCNCCCNCC3)cc2)cc1 [Example 9, 4,4′-bis[(1,4,8,11-tetraazacyclotetradecan-1-yl)-methyl]-4″-bromo-1,1′,1″-triphenylmethane octahydrobromide dihydrate] | 65800 ± 7960 nM | 1.75 ± 0.37 µM | 0.43 ± 0.07 µM |  |
| Fc1ccc(C(c2ccc(CN3CCCNCCNCCCNCC3)cc2)c2ccc(CN3CCCNCCNCCCNCC3)cc2)cc1 [Example 10, 4,4′-bis[(1,4,8,11-tetraazacyclotetradecan-1-yl)-methyl]-4″-fluoro-1,1′,1″-triphenylmethane octahydrobromide dihydrate] | 91300 ± 8750 nM | 1.22 ± 0.2 µM | 0.43 ± 0.11 µM |  |
| Clc1cccc(C(c2ccc(CN3CCCNCCNCCCNCC3)cc2)c2ccc(CN3CCCNCCNCCCNCC3)cc2)c1 [Example 11, 4,4′-bis[(1,4,8,11-tetraazacyclotetradecan-1-yl)-methyl]-3″-chloro-1,1′,1″-triphenylmethane octahydrobromide dihydrate] | 67800 ± 13300 nM | 1.48 ± 0.52 µM | 0.65 ± 0.2 µM |  |
| c1ccc(C(c2cccc(CN3CCCNCc4cccc(c4)CNCCC3)c2)c2cccc(CN3CCCNCc4cccc(c4)CNCCC3)c2)cc1 [Example 13, 3,3′-bis{[3,7,11-triaza-dicyclo[11.3.1]heptadecan-1(16),13(17),14-trien-7-yl]-methyl}-1,1′,1″-triphenylmethane hexahydrobromide dihydrate] | 12400 ± 3690 nM | 1.56 ± 0.48 µM |  | 0.64 ± 0.08 µM |
| c1ccc(C(c2cccc(CN3CCCNCc4cccc(n4)CNCCC3)c2)c2cccc(CN3CCCNCc4cccc(n4)CNCCC3)c2)cc1 [Example 19, 3,3′-bis{[3,7,11,17-tetraaza-dicyclo[11.3.1]heptadecan-1(16),13(17),14-trien-7-yl]-methyl}-1,1′,1″-triphenyl methane hexahydrobromide dihydrate] | 14500 ± 1290 nM | 0.79 ± 0.02 µM | 0.44 ± 0.04 µM |  |
| Clc1cccc(C(c2cccc(CN3CCCNCc4cccc(n4)CNCCC3)c2)c2cccc(CN3CCCNCc4cccc(n4)CNCCC3)c2)c1 [Example 23, 3,3′-bis{[3,7,11,17-tetraaza-dicyclo[11.3.1]heptadecan-1(16),13(17),14-trien-7-yl]-methyl}-3″-chloro-1,1′,1″-triphenylmethane hexahydrobromide dihydrate] | 15300 ± 560 nM | 1.18 ± 0.48 µM | 0.32 ± 0.05 µM |  |
| c1ccc(C(c2ccc(CN3CCCNCc4cccc(c4)CNCCC3)cc2)c2ccc(CN3CCCNCc4cccc(c4)CNCCC3)cc2)cc1 [Example 25, 4,4′-bis{[3,7,11-triaza-dicyclo[11.3.1]heptadecan-1(16),13(17),14-trien-7-yl]-methyl}-1,1′1″-triphenylmethane hexahydrobromide dihydrate] | 32500 ± 3270 nM | 1.87 ± 0.28 µM | 0.55 ± 0.09 µM |  |
| Cc1ccc(C(c2ccc(CN3CCCNCc4cccc(n4)CNCCC3)cc2)c2ccc(CN3CCCNCc4cccc(n4)CNCCC3)cc2)cc1 [Example 31, 4,4′-bis{[3,7,11,17-tetraaza-dicyclo[11.3.1]heptadecan-1(16),13(17),14-trien-7-yl]-methyl}-4″-methyl-1,1′,1″-triphenylmethane hexahydrobromide dihydrate] | 39290 ± 80 nM | 1.07 ± 0.79 µM | 0.78 ± 0.18 µM |  |
| Brc1ccc(C(c2ccc(CN3CCCNCc4cccc(n4)CNCCC3)cc2)c2ccc(CN3CCCNCc4cccc(n4)CNCCC3)cc2)cc1 [Example 32, 4,4′-bis{[3,7,11,17-tetraaza-dicyclo[11.3.1]heptadecan-1(16),13(17),14-trien-7-yl]-methyl}-4″-bromo-1,1′,1″-triphenylmethane hexahydrobromide dihydrate] | 12900 ± 310 nM | 0.8 ± 0.23 µM | 0.15 ± 0.02 µM |  |
